Test results taken from ChEMBL document CHEMBL3988442, “University of Dundee, Small-Polar-MMV Screening Library” (2021).

System: Schistosoma mansoni
Assay: High throughput screening of compounds against Schistosoma mansoni motility
Type: functional
Set-up: dose or concentration left out as unconfirmed

Row | SMILES | Percent Effect [%]
1 | CCCNC(=O)CNC(=O)CCc1ccccc1Br | 24.36
2 | Cc1cnc2c(c1NCc1ccncc1)c(=O)n(C)c(=O)n2C | -90.48
3 | CCc1cnc2c(c1NCc1ccncc1)c(=O)n(C)c(=O)n2C | -33.12
4 | CC1CCN(S(=O)(=O)c2cccn(CC(=O)NC3CCCC3)c2=O)CC1 | -45
5 | Cc1ccc(N2CCN(C(=O)COc3nccc(C)n3)CC2)nn1 | -46.68
6 | COCC(C)(O)CNC(=O)COc1ccccc1OC (stereo not drawn) | -28.83
7 | CC(=O)NCCN1CCC(c2cccs2)CC1 | -65.41
8 | O=C(Nc1nc2c(s1)CN(S(=O)(=O)C1CC1)CC2)c1c(F)cccc1F | 15.1
9 | Cc1ccc(S(=O)(=O)NC2CNC(=O)C2)cc1C (stereo not drawn) | -73.52
10 | Cn1c(C(F)(F)F)nn(CCNC(=O)c2cnc3ccccc3n2)c1=O | -7.141
11 | CC(=O)N1CCC(Oc2ccc(Cl)cn2)CC1 | -33.97
12 | Cc1cnc2n(c1=O)CC(C(=O)NC1CC1)CS2 (stereo not drawn) | -61.59
13 | Cn1cnnc1S(=O)(=O)C1CCN(S(=O)(=O)c2ccc(F)c(Cl)c2)CC1 | -43.49
14 | Cn1cnc(S(=O)(=O)N2CCCC2)c1Cl | -11.59
15 | O=S1(=O)CCCN1Cc1coc(-c2cccs2)n1 | -11.58
16 | CCCNC(=O)C(C)NC(=O)CCc1ccccc1Br (stereo not drawn) | 31.68
17 | Cc1cnc(C(=O)N(CCN(C)C)Cc2ccc(Cl)cc2)cn1 | 17.37
18 | CCc1nnc2n1CCN(C(=O)c1csc(-c3cnn(C)c3)n1)C2 | -4.866
19 | CS(=O)(=O)CCSc1cccc(C#N)c1 | -35.13
20 | Cc1nc(C2CCCN(C(=O)c3scnc3C)C2)no1 (stereo not drawn) | 18.51
21 | CC(C)COC(C)C(=O)N1CCN(S(C)(=O)=O)CC1 (stereo not drawn) | -53.15
22 | CN(C)S(=O)(=O)N1CCN(c2nccc(C(F)(F)F)n2)CC1 | -52.05
23 | O=C(c1cc(Cl)c2c(c1)OCO2)N1CCN(c2nccs2)CC1 | -51.67
24 | O=C(NCCCn1cccn1)C1(c2ccc(F)cc2)CC1 | 23.22
25 | Cc1ccc(C(=O)NC(C)CN2CCCC2=O)c(=O)[nH]1 (stereo not drawn) | -45.23

Row | SMILES | Percent Effect [%]
26 | COc1ccc(NC(C)C(=O)N2CCN(c3ncccn3)CC2)cn1 (stereo not drawn) | -56.07
27 | CC(C)(C)C(=O)NCCC(=O)NS(=O)(=O)c1ccc2c(c1)OCCO2 | -42.92
28 | COCC(NC(=O)c1cnn(C)c1)c1cccc(C(F)(F)F)c1 (stereo not drawn) | -48.05
29 | Cc1c(Br)cccc1C(=O)NC(C)CN1CCCC1=O (stereo not drawn) | -4.935
30 | CCn1nc2c(cc1=O)CN(Cc1nc(N)c3ccccc3n1)CC2 | -40.99
31 | NC(=O)CCOc1nc(-c2ccccc2Cl)no1 | -31.15
32 | Cc1nc(CN2CCc3cncnc3C2)oc1C | -26.27
33 | CCN(CC)C(=O)c1ccc(-c2ccsc2)nc1C | -45.64
34 | COc1ccc(CN(C)C(=O)CCc2c(C)nc(C)[nH]c2=O)cc1OC | -19.42
35 | CC1CCN(CCNC(=O)c2cncnc2C(C)C)CC1 | -17.46
36 | CC1CCCN(CCNC(=O)c2cncnc2C(C)C)C1 (stereo not drawn) | -12.57
37 | Cc1nc(-c2ccsc2)ccc1C(=O)O | -19.43
38 | CCc1ccc(C(=O)N2CCCC(n3cncn3)C2)o1 (stereo not drawn) | -35.91
39 | COc1ccc(CNCCc2cc(F)cc3c2OCOC3)cc1O | -21.14
40 | Cc1nc(C)n(CC2CN(CC(=O)Nc3cccnc3)CCO2)n1 (stereo not drawn) | -4.464
41 | O=C(c1ccc(Br)o1)N1CCCC(n2cncn2)C1 (stereo not drawn) | -24.61
42 | Cc1ccc(CNCC2CCc3nnc(C(C)C)n3C2)s1 (stereo not drawn) | 21.49
43 | Cc1csc(N2CCN(Cc3ccccn3)CC2C)n1 (stereo not drawn) | -63.75
44 | CCc1ccc(C(=O)Nc2ccc(CC3CC(=O)NC3=O)cc2)cc1 (stereo not drawn) | -47.76
45 | Cc1cccc(N2CCC(NC(=O)CCCc3cccs3)CC2)n1 | -13.77
46 | Cc1cc(C)n(CC2CCCN2C(=O)c2ccc3[nH]nnc3c2)n1 (stereo not drawn) | -6.294
47 | Cn1c(CN2CCN(CC3CC3)CC2)nnc1C1CCC1 | -23.98
48 | CC(C)S(=O)(=O)NCC1CCCN(C(=O)c2ccc3c(c2)CCC3)C1 (stereo not drawn) | -22.55
49 | Cc1nc(C)n(CC2CN(CCc3ccncc3)CCO2)n1 (stereo not drawn) | -26.46
50 | Cc1nsc(N2CCCN(c3nc(C4CC4)ns3)CC2)n1 | -32.57

Row | SMILES | Percent Effect [%]
51 | Cc1n[nH]c(C)c1C1COCCN1C(=O)Cc1cccc(F)c1 (stereo not drawn) | -66.08
52 | Cc1csc(N2CCN(CCc3ccccn3)CC2C)n1 (stereo not drawn) | -16.94
53 | Cc1noc(C)c1CCC(=O)N1CCN(CCn2cncn2)CC1 | -8.408
54 | COCCNS(=O)(=O)c1cccc2c1CN(C(=O)c1ccccc1)CC2 | 10.23
55 | CC(c1ccccc1)n1c(SCC(=O)O)nnc1-c1ccccc1Cl (stereo not drawn) | 15.81
56 | O=C(CCCc1ccc(F)cc1)N1C[C@@H](CN2CCOCC2)[C@@H](CO)C1 | -22.43
57 | CN(C)C(=O)N1C[C@@H]2CC[C@H](C1)N(Cc1ccc3nsnc3c1)C2 | -20.59
58 | CC(CN1CCC2(CC1)c1nc[nH]c1CCN2S(C)(=O)=O)C(F)(F)F (stereo not drawn) | 2.483
59 | COCCN1CCC(CN(CC2CCCO2)C(=O)CCNC(C)=O)CC1 (stereo not drawn) | -20.27
60 | COc1cccc2c1OCC(C(=O)N(C)CCCc1cnn(C)c1)C2 (stereo not drawn) | -37.39
61 | COc1cccc(C(=O)N2CCCC(C(=O)CCc3ccccc3)C2)c1 (stereo not drawn) | 20.31
62 | Cc1cnccc1N1CCCN(C(=O)CCCS(N)(=O)=O)CC1 | -57.05
63 | Cn1c(Cn2cccn2)nnc1C1CCN(Cc2cccnc2N)CC1 | -7.123
64 | Cc1nccc(N2CCC(=O)N(Cc3ccc(F)cc3)C(C(C)C)C2)n1 (stereo not drawn) | -22.84
65 | CC[C@@]1(O)CCN(C(=O)c2ccc(-c3cccc(F)c3)cc2)C[C@H]1O | 16.9
66 | CC(=O)NCC1CCN(CC2CCOc3ccccc3C2)CC1 (stereo not drawn) | -62.7
67 | CCc1nnc(CN(C)c2nc(C3CCCC3)nc3c2cnn3C)o1 | 1.111
68 | COc1cccc(N2CCN(Cc3ncc[nH]3)CC2=O)c1 | -64.93
69 | CCC(=O)N1CCC2(CC1)c1nc[nH]c1CCN2S(C)(=O)=O | -32.51
70 | CSCC[C@H](N)C(=O)NCc1cc2n(n1)CCCN(C1CCCCC1)C2 | -26.84
71 | CCSCC(C)NCc1nncn1C1CCCCC1 (stereo not drawn) | 1.244
72 | O=C(c1ccc[nH]1)N1CCC(c2nccn2Cc2ccncc2)CC1 | -12.18
73 | CC(=O)NC(C)CC(=O)NCc1cccnc1Oc1ccccc1C (stereo not drawn) | 11.59
74 | Cc1cc(N2CCC(c3nnc(CN(C)C)n3C3CC3)CC2)ccn1 | -0.2407
75 | Cn1ncc2c(N3CCN(C(N)=O)CC3)nc(C3CCCC3)nc21 | -18.38

Row | SMILES | Percent Effect [%]
76 | CSCC(=O)N1C[C@H]2CC[C@@H]1CN(Cc1ccccc1)C2 | 13.06
77 | Cc1cccnc1CN1CCC(c2nnc(Cn3cccn3)n2C)CC1 | -11.55
78 | CCn1c(CN(C)C)nnc1C1CCN(c2ccnc(C)c2)CC1 | 3.943
79 | Cc1ccsc1CN(CCN(C)C)Cc1ccccn1 | -19.12
80 | O=C(c1cccnc1)N1C[C@@H]2CC[C@H](C1)N(Cc1ncc[nH]1)C2 | -27.62
81 | COC(=O)c1cc(OCC2CCC2)cc(C(=O)N[C@H]2CC[C@H](O)CC2)c1 | -76.62
82 | COCc1cc(NCc2cc(F)ccc2F)n2nccc2n1 | -61.56
83 | CCCN(CCO)C(=O)C1CCC(=O)N(CCc2ccc(Cl)cc2)C1 (stereo not drawn) | -16.9
84 | O=C1CC2(CCN(CCO)CC2)CN1Cc1cc(F)cc(F)c1 | 8.592
85 | Cc1nc[nH]c1-c1nc2cc(S(=O)(=O)N3CCCC3)ccc2n1C | -57.95
86 | CC[C@@]1(O)CCN(C(=O)c2ccc(SC)cc2)C[C@H]1O | 20.95
87 | C[C@@H]1CN(C2(C(=O)N3CCOCC3)Cc3ccccc3C2)C[C@H](C)O1 | 12.59
88 | O=C(CCn1cnnc1)N1CCCC(c2ncc[nH]2)C1 (stereo not drawn) | -28.96
89 | O=C(CCc1ccc(O)cc1)N1CCC(Cc2ccc(CO)cc2)C1 (stereo not drawn) | 16.91
90 | O=C(CCCc1cn[nH]c1)N1CCOCC(O)C1 (stereo not drawn) | -19.59
91 | COC(=O)c1cc(OCC2CCC2)cc(C(=O)N[C@@H]2CNCC[C@H]2O)c1 | -27.72
92 | COc1ccc(-n2nnc(C(=O)NC(C)C)c2C2CC2)cc1 | 0.8394
93 | CCS(=O)(=O)N(C)c1ccc(C(=O)N2CCCC(C)C2)cc1 (stereo not drawn) | -22.28
94 | CCC(=O)N1CCC(c2nnc(Cn3cncn3)n2C2CC2)CC1 | -42.58
95 | O=C(NC[C@@H]1CCCN1)c1cc(COc2cccc(C(F)(F)F)c2)[nH]n1 | 73.28
96 | Cc1cnccc1N1CCCN(C(=O)CCCc2cn[nH]c2)CC1 | -14.12
97 | CSc1ccccc1CN1CCn2nc(CNC(C)=O)cc2C1 | -11.64
98 | Cc1cc(CN2CCN(C(=O)C(C)C)[C@@H]3CS(=O)(=O)C[C@@H]32)ccc1F | 10.81
